Where two headings read alike, the source gives them in different places.
Biological target: T1, PD-1/PD-L1 (Homo sapiens, UniProt Q9NZQ7)
T1 construct: made in house; host or cells: HEK293T
Experiment: PD-1/PD-L1 Homogenous Time-Resolved Fluorescence (HTRF) binding assay
Conditions: PD-L1-His 10 nM, PD-1-Ig 20 nM, read-out: Range or IC50
In short: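 Compounds are tested for blocking the PD-1/PD-L1 interaction in dPBS supplemented with 0.1% BSA and 0.05% (v/v) Tween-20. Tagged proteins are detected with Eu-cryptate anti-Ig and APC anti-His at 1 and 20 nM final.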

T1 sequence (Q9NZQ7 with tags, fused parts or gaps): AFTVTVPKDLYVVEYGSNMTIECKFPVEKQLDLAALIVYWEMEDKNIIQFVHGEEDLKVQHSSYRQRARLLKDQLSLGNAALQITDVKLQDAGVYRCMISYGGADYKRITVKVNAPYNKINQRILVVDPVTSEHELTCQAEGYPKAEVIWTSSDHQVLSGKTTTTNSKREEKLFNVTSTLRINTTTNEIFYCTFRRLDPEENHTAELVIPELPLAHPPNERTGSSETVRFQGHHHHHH

Cc1c(COc2cc(OCc3cncc(C#N)c3)c(CNC(CO)CO)cc2Cl)cccc1-c1cccc(OCCCN2CCCCC2)c1C [Example 2291, 5-((4-chloro-2-(((1,3-dihydroxypropan-2-yl)amino)methyl)-5-((2,2′-dimethyl-3′-(3-(piperidin-1-yl)propoxy)-[1,1′-biphenyl]-3-yl)methoxy)phenoxy)methyl)nicotinonitrile]
IC50 (numeric IC50): 1.9 nM

Cc1c(COc2cc(OCc3cncc(C#N)c3)c(CNC(CO)CO)cc2Cl)cccc1-c1cccc(OCCCN2CCC[C@@H](CO)C2)c1C [Example 2292, (R)-5-((4-chloro-2-(((1,3-dihydroxypropan-2-yl)amino)methyl)-5-((3′-(3-(3-(hydroxymethyl)piperidin-1-yl)propoxy)-2,2′-dimethyl-[1,1′-biphenyl]-3-yl)methoxy)phenoxy)methyl)nicotinonitrile]
IC50 (value given as range class): 0.21 to 10 nM

Cc1c(COc2cc(OCc3cncc(C#N)c3)c(CNC(CO)CO)cc2Cl)cccc1-c1cccc(OCCCNC[C@H](O)CO)c1C [Example 2293, (S)-5-((4-chloro-2-(((1,3-dihydroxypropan-2-yl)amino)methyl)-5-((3′-(3-((2,3-dihydroxypropyl)amino)propoxy)-2,2′-dimethyl-[1,1′-biphenyl]-3-yl)methoxy)phenoxy)methyl)nicotinonitrile]
IC50 (value given as range class): 0.21 to 10 nM

Cc1c(COc2cc(OCc3cncc(C#N)c3)c(CNC(CO)CO)cc2Cl)cccc1-c1cccc(OCCCN2CCC(CO)CC2)c1C [Example 2294, 5-((4-chloro-2-(((1,3-dihydroxypropan-2-yl)amino)methyl)-5-((3′-(3-(4-(hydroxymethyl)piperidin-1-yl)propoxy)-2,2′-dimethyl-[1,1′-biphenyl]-3-yl)methoxy)phenoxy)methyl)nicotinonitrile]
IC50 (value given as range class): 0.21 to 10 nM

Cc1c(COc2cc(OCc3cncc(C#N)c3)c(CNC(C)(CO)CO)cc2Cl)cccc1-c1cccc(OCCCN2CCC[C@H](CO)C2)c1C [Example 2295, (S)-5-((4-chloro-2-(((1,3-dihydroxy-2-methylpropan-2-yl)amino)methyl)-5-((3′-(3-(3-(hydroxymethyl)piperidin-1-yl)propoxy)-2,2′-dimethyl-[1,1′-biphenyl]-3-yl)methoxy)phenoxy)methyl)nicotinonitrile]
IC50 (value given as range class): 0.21 to 10 nM

Cc1c(COc2cc(OCc3cncc(C#N)c3)c(CNC(CO)CO)cc2Cl)cccc1-c1cccc(OCCCN2CCC[C@H](CO)C2)c1C [Example 2296, (S)-5-((4-chloro-2-(((1,3-dihydroxypropan-2-yl)amino)methyl)-5-((3′-(3-(3-(hydroxymethyl)piperidin-1-yl)propoxy)-2,2′-dimethyl-[1,12′-biphenyl]-3-yl)methoxy)phenoxy)methyl)nicotinonitrile]
IC50 (value given as range class): 0.21 to 10 nM

Cc1c(COc2cc(OCc3cncc(C#N)c3)c(CNC(C)(CO)CO)cc2Cl)cccc1-c1cccc(OCCCNC[C@H](O)CO)c1C [Example 2297, (S)-5-((4-chloro-2-(((1,3-dihydroxy-2-methylpropan-2-yl)amino)methyl)-5-((3′-(3-((2,3-dihydroxypropyl)amino)propoxy)-2,2′-dimethyl-[1,1′-biphenyl]-3-yl)methoxy)phenoxy)methyl)nicotinonitrile]
IC50 (value given as range class): 0.21 to 10 nM

Cc1c(OCCCN2CC[C@H](CO)[C@H](O)C2)cccc1-c1cccc(COc2cc(OCc3cncc(C#N)c3)c(CNC(CO)CO)cc2Cl)c1Cl [Example 2298, 5-((4-chloro-5-((2-chloro-3′-(3-((3S,4R)-3-hydroxy-4-(hydroxymethyl)piperidin-1-yl)propoxy)-2′-methyl-[1,1′-biphenyl]-3-yl)methoxy)-2-(((1,3-dihydroxypropan-2-yl)amino)methyl)phenoxy)methyl)nicotinonitrile]
IC50 (value given as range class): 0.21 to 10 nM

Cc1c(OCCCNC[C@H](O)CO)cccc1-c1cccc(COc2cc(OCc3cncc(C#N)c3)c(CNC(CO)CO)cc2Cl)c1Cl [Example 2299, (S)-5-((4-chloro-5-((2-chloro-3′-(3-((2,3-dihydroxypropyl)amino)propoxy)-2′-methyl-[1,1′-biphenyl]-3-yl)methoxy)-2-(((1,3-dihydroxypropan-2-yl)amino)methyl)phenoxy)methyl)nicotinonitrile]
IC50 (value given as range class): 0.21 to 10 nM

Cc1c(OCCCN2CC[C@@H](O)C2)cccc1-c1cccc(COc2cc(OCc3cncc(C#N)c3)c(CNC(CO)CO)cc2Cl)c1Cl [Example 2300, (R)-5-((4-chloro-5-((2-chloro-3′-(3-(3-hydroxypyrrolidin-1-yl)propoxy)-2′-methyl-[1,1′-biphenyl]-3-yl)methoxy)-2-(((1,3-dihydroxypropan-2-yl)amino)methyl)phenoxy)methyl)nicotinonitrile]
IC50 (numeric IC50): 1.7 nM

Cc1c(OCCCN2CCCCC2)cccc1-c1cccc(COc2cc(OCc3cncc(C#N)c3)c(CNC(CO)CO)cc2Cl)c1Cl [Example 2301, 5-((4-chloro-5-((2-chloro-2′-methyl-3′-(3-(piperidin-1-yl)propoxy)-[1,1′-biphenyl]-3-yl)methoxy)-2-(((1,3-dihydroxypropan-2-yl)amino)methyl)phenoxy)methyl)nicotinonitrile]
IC50 (value given as range class): 0.21 to 10 nM

Cc1c(OCCCN2CC[C@@H](O)C2)cccc1-c1cccc(COc2cc(OCc3cncc(C#N)c3)c(CN3CCCC[C@H]3C(=O)O)cc2Cl)c1Cl [Example 2302, (S)-1-(5-chloro-4-((2-chloro-3′-(3-((R)-3-hydroxypyrrolidin-1-yl)propoxy)-2′-methyl-[1,1′-biphenyl]-3-yl)methoxy)-2-((5-cyanopyridin-3-yl)methoxy)benzyl)piperidine-2-carboxylic Acid]
IC50 (value given as range class): 0.21 to 10 nM

Cc1c(OCCCNC[C@H](O)CO)cccc1-c1cccc(COc2cc(OCc3cncc(C#N)c3)c(CN3CCCC[C@H]3C(=O)O)cc2Cl)c1Cl [Example 2303, (S)-1-(5-chloro-4-((2-chloro-3′-(3-(((S)-2,3-dihydroxypropyl)amino)propoxy)-2′-methyl-[1,1′-biphenyl]-3-yl)methoxy)-2-((5-cyanopyridin-3-yl)methoxy)benzyl)piperidine-2-carboxylic Acid]
IC50 (value given as range class): 0.21 to 10 nM

Cc1c(OCCCN2CC[C@H](O)C2)cccc1-c1cccc(COc2cc(OCc3cncc(C#N)c3)c(CN3CCCC[C@H]3C(=O)O)cc2Cl)c1Cl [Example 2304, (S)-1-(5-chloro-4-((2-chloro-3′-(3-((S)-3-hydroxypyrrolidin-1-yl)propoxy)-2′-methyl-[1,1′-biphenyl]-3-yl)methoxy)-2-((5-cyanopyridin-3-yl)methoxy)benzyl)piperidine-2-carboxylic Acid]
IC50 (value given as range class): 0.21 to 10 nM

Cc1c(OCCCN2CC[C@@H](O)C2)cccc1-c1cccc(COc2cc(OCc3cncc(C#N)c3)c(CNC(C)(CO)CO)cc2Cl)c1Cl [Example 2305, (R)-5-((4-chloro-5-((2-chloro-3′-(3-(3-hydroxypyrrolidin-1-yl)propoxy)-2′-methyl-[1,1′-biphenyl]-3-yl)methoxy)-2-(((1,3-dihydroxy-2-methylpropan-2-yl)amino)methyl)phenoxy)methyl)nicotinonitrile]
IC50 (value given as range class): 0.21 to 10 nM

Cc1c(OCCCN2CCCCC2)cccc1-c1cccc(COc2cc(OCc3cncc(C#N)c3)c(CN3CCCC[C@H]3C(=O)O)cc2Cl)c1Cl [Example 2306, (S)-1-(5-chloro-4-((2-chloro-2′-methyl-3′-(3-(piperidin-1-yl)propoxy)-[1,1′-biphenyl]-3-yl)methoxy)-2-((5-cyanopyridin-3-yl)methoxy)benzyl)piperidine-2-carboxylic Acid]
IC50 (value given as range class): 0.21 to 10 nM

Cc1c(OCCCNC[C@H](O)CO)cccc1-c1cccc(COc2cc(OCc3cncc(C#N)c3)c(CNC(C)(CO)CO)cc2Cl)c1Cl [Example 2307, (S)-5-((4-chloro-5-((2-chloro-3′-(3-((2,3-dihydroxypropyl)amino)propoxy)-2′-methyl-[1,1′-biphenyl]-3-yl)methoxy)-2-(((1,3-dihydroxy-2-methylpropan-2-yl)amino)methyl)phenoxy)methyl)nicotinonitrile]
IC50 (value given as range class): 0.21 to 10 nM

Cc1c(OCCCN2CCCCC2)cccc1-c1cccc(COc2cc(OCc3cncc(C#N)c3)c(CNC(C)(CO)CO)cc2Cl)c1Cl [Example 2308, 5-((4-chloro-5-((2-chloro-2′-methyl-3′-(3-(piperidin-1-yl)propoxy)-[1,1′-biphenyl]-3-yl)methoxy)-2-(((1,3-dihydroxy-2-methylpropan-2-yl)amino)methyl)phenoxy)methyl)nicotinonitrile]
IC50 (value given as range class): 0.21 to 10 nM

Cc1c(OCCCN2CCOCC2)cccc1-c1cccc(COc2cc(OCc3cncc(C#N)c3)c(CN3CCCC[C@H]3C(=O)O)cc2Cl)c1Cl [Example 2309, (S)-1-(5-chloro-4-((2-chloro-2′-methyl-3′-(3-morpholinopropoxy)-[1,1′-biphenyl]-3-yl)methoxy)-2-((5-cyanopyridin-3-yl)methoxy)benzyl)piperidine-2-carboxylic Acid]
IC50 (numeric IC50): 3 nM

Cc1c(OCCCN2CCS(=O)(=O)CC2)cccc1-c1cccc(COc2cc(OCc3cncc(C#N)c3)c(CN3CCCC[C@H]3C(=O)O)cc2Cl)c1Cl [Example 2310, (S)-1-(5-chloro-4-((2-chloro-3′-(3-(1,1-dioxidothiomorpholino)propoxy)-2′-methyl-[1,1′-biphenyl]-3-yl)methoxy)-2-((5-cyanopyridin-3-yl)methoxy)benzyl)piperidine-2-carboxylic Acid]
IC50 (value given as range class): 0.21 to 10 nM

CC(=O)N[C@H]1CCN(CCCOc2cccc(-c3cccc(COc4cc(OCc5cncc(C#N)c5)c(CNC(CO)CO)cc4Cl)c3Cl)c2C)C1 [Example 2311, (S)—N-(1-(3-((2′-chloro-3′-((2-chloro-5-((5-cyanopyridin-3-yl)methoxy)-4-(((1,3-dihydroxypropan-2-yl)amino)methyl)phenoxy)methyl)-2-methyl-[1,1′-biphenyl]-3-yl)oxy)propyl)pyrrolidin-3-yl)acetamide]
IC50 (value given as range class): 0.21 to 10 nM

— patent US10745382B2 (BRISTOL-MYERS SQUIBB COMPANY, priority 2015, dated 2020)
